In patent publication US20230312562A1, “TETRAHYDRO-3H-PYRAZOLO QUINOLONE AND TETRAHYDRO-3H-PYRROLO[3,2-F]QUINOLINE -CONTAINING COMPOUNDS AND USES THEREOF” (Purdue Research Foundation, priority 2020, published 2023):
Marks after values point to notes of the source that are not given here.

Columns and labels:
MDA-MB-231 = experiment: Inhibition of MDA-MB-231 viability/growth at 1 μM, 72 h; format: cell-based; settings: Homo sapiens, MDA-MB-231; 1 μM compound, 72 h incubation
MDA-MB-435 = experiment: NCI-60 sulforhodamine B assay, MDA-MB-435; format: cell-based; settings: MDA-MB-435, melanoma, 48 h; for GI50: Homo sapiens
Procedure: (§1) Compounds HSD1787, 22, 23 and 27 were sent to the National Cancer Institute (NCI), Bethesda, Maryland (Drug Evaluation Branch), to evaluate the effects of compounds on the NCI-60 cell panel. According to the NCI protocol, the compounds were evaluated at five concentrations (10-fold dilutions) with the highest concentration being 100 μM and the incubation period was 48 h. A sulforhodamine B assay was used to assay the effects of the compounds on the cancer cells. […] The most sensitive cell lines (total growth inhibition, TGI, could be achieved with concentrations less than 1 μM of some of the compounds) were MDA-MB-435 (melanoma), SF-539 (glioma), A498 (renal), MDA-MB-468 (breast), OVCAR-3 (ovarian), NCI-H522 (non-small cell lung cancer). On the other hand, UACC-257 and SK-MEL-28 (both melanoma), TK-10 (renal), OVCAR-4 (ovarian) and T-47D (breast) were resistant to the compounds as 10 μM could not cause total growth inhibition (Table 2). […] This is in line with current appreciation that tumor mutational burden and not necessarily the anatomical origin of the tumor determines treatment strategies or outcomes.
(§2) According to the National Cancer Institute, Bethesda, Maryland (the protocol of the Drug Evaluation Branch), the effects of compounds are measured as follows: Cell suspensions are diluted to a target cell density of 5000-40,000 cells per well (based on cell growth characteristics) in a 96-well microtiter plates. The test compounds were evaluated at five concentrations (10-fold dilutions) with the highest concentration being 100 μM. The incubation period was 48 h under 5% carbon dioxide atmosphere and 100% humidity. A sulforhodamine B assay was used to assay the cells. Optical densities of the wells were read by a plate reader the optical densities were processed into GI50 (the concentration that causes 50% growth inhibition).
(§3) The NCI renamed the IC50 value, the concentration of compound that causes 50% growth inhibition, as follows:
(§4) The control is the well not treated with test agent (https://dtp.cancer.gov/databases_tools/docs/compare/compare_methodology.htm).

K-562 = experiment: NCI-60 sulforhodamine B assay, K-562; format: cell-based; settings: Homo sapiens, K562; K-562, leukemia, 48 h
Procedure: as §1, §2, §3, §4

SF-539 = experiment: NCI-60 sulforhodamine B assay, SF-539; format: cell-based; settings: SF-539, CNS, 48 h; for GI50: Homo sapiens
Procedure: as §1, §2, §3, §4

MCF7 = experiment: NCI-60 sulforhodamine B assay, MCF7; format: cell-based; settings: MCF7, breast, 48 h; for GI50: Homo sapiens
Procedure: as §1, §2, §3, §4

A498 = experiment: NCI-60 sulforhodamine B assay, A498; format: cell-based; settings: A498, renal, 48 h; for GI50: Homo sapiens
Procedure: as §1, §2, §3, §4

MDA-MB-468 = experiment: NCI-60 sulforhodamine B assay, MDA-MB-468; format: cell-based; settings: MDA-MB-468, breast, 48 h; for GI50: Homo sapiens
Procedure: as §1, §2, §3, §4

SR = experiment: NCI-60 sulforhodamine B assay, SR; format: cell-based; settings: Homo sapiens, lymphoma, 48 h
Procedure: as §1, §2, §3, §4

SF-295 = experiment: NCI-60 sulforhodamine B assay, SF-295; format: cell-based; settings: SF-295, CNS, 48 h; for GI50: Homo sapiens
Procedure: as §1, §2, §3, §4

Ovcar-3 = experiment: NCI-60 sulforhodamine B assay, Ovcar-3; format: cell-based; settings: Ovcar-3, ovarian, 48 h; for GI50: Homo sapiens
Procedure: as §1, §2, §3, §4

NCI-H522 = experiment: NCI-60 sulforhodamine B assay, NCI-H522; format: cell-based; settings: NCI-H522, non-small cell lung, 48 h; for GI50: Homo sapiens
Procedure: as §1, §2, §3, §4

Ovcar-8 = experiment: NCI-60 sulforhodamine B assay, Ovcar-8; format: cell-based; settings: Homo sapiens; Ovcar-8, ovarian, 48 h
Procedure: as §1, §2, §3, §4

NCI/ADR-RES = experiment: NCI-60 sulforhodamine B assay, NCI/ADR-RES; format: cell-based; settings: ovarian, 48 h; for GI50: Homo sapiens
Procedure: as §1, §2, §3, §4

UACC-257 = experiment: NCI-60 sulforhodamine B assay, UACC-257; format: cell-based; settings: Homo sapiens; UACC-257, melanoma, 48 h
Procedure: as §1, §2, §3, §4

TK-10 = experiment: NCI-60 sulforhodamine B assay, TK-10; format: cell-based; settings: Homo sapiens; TK-10, renal, 48 h
Procedure: as §1, §2, §3, §4

Ovcar-4 = experiment: NCI-60 sulforhodamine B assay, Ovcar-4; format: cell-based; settings: Homo sapiens; Ovcar-4, ovarian, 48 h
Procedure: as §1, §2, §3, §4

SK-MEL-28 = experiment: NCI-60 sulforhodamine B assay, SK-MEL-28; format: cell-based; settings: Homo sapiens; SK-MEL-28, melanoma, 48 h
Procedure: as §1, §2, §3, §4

T-47D = experiment: NCI-60 sulforhodamine B assay, T-47D; format: cell-based; settings: Homo sapiens, T47D, breast, 48 h
Procedure: as §1, §2, §3, §4

NCI60 cell lines = experiment: NCI-60 cell panel, summary statements; format: cell-based; settings: melanoma, renal, breast, ovarian and leukemia cancer cell lines; read-out: GI50 values as low as
Procedure: as §1, §2, §3, §4

tubulin = experiment: Inhibition of tubulin polymerization; format: biochemical; settings: at 10 μM; similar to inhibition by colchicine

Nc1n[nH]c2cc(F)c([C@@H]3Nc4ccc5[nH]ncc5c4[C@H]4[C@@H]5CC[C@@H](C5)[C@H]43)cc12 (stereo in doubt) [Compound 27, 6-Fluoro-5-(6,7,7a,8,9,10,11,11a-octahydro-3H-8,11-methanopyrazolo[4,3-a]phenanthridin-7-yl)-1H-indazol-3-amine]
inhibition at 1 µM (MDA-MB-231): ~100%
GI50 (MDA-MB-435): 94.3 nM
TGI (total growth inhibition) (MDA-MB-435): 0.283^d μM
GI50 (K-562): 92.2 nM
GI50 (SF-539): 114 nM
TGI (total growth inhibition) (SF-539): 0.304^d μM
GI50 (MCF7): 137 nM
TGI (total growth inhibition) (MCF7): 8440 nM
TGI (total growth inhibition) (A498): 0.280^d μM
GI50 (A498): 71.4 nM
GI50 (MDA-MB-468): 133 nM
TGI (total growth inhibition) (MDA-MB-468): 0.424^d μM
GI50 (SR): 59.8 nM
GI50 (SF-295): 139 nM
TGI (total growth inhibition) (SF-295): 5770 nM
GI50 (Ovcar-3): 138 nM
GI50 (NCI-H522): 109 nM
TGI (total growth inhibition) (NCI-H522): 0.544^d μM
GI50 (Ovcar-8): 194 nM
GI50 (NCI/ADR-RES): 177 nM
TGI (total growth inhibition) (NCI/ADR-RES): 1210 nM
GI50 (UACC-257): 2700 nM
GI50 (TK-10): 2020 nM
GI50 (Ovcar-4): 416 nM
GI50 (SK-MEL-28): 352 nM
GI50 (T-47D): > 10000 nM
GI50 (NCI60 cell lines): ≥ 30 nM

Nc1n[nH]c2ccc([C@@H]3Nc4ccc5[nH]ncc5c4[C@H]4C5CC[C@@H](C5)[C@@H]34)cc12 (stereo in doubt) [HSD1787, 5-(6,7,7a,8,9,10,11,11a-Octahydro-3H-8,11-methanopyrazolo[4,3-a]phenanthridin-7-yl)-1H-indazol-3-amine]
inhibition at 1 µM (MDA-MB-231): 95%
GI50 (MDA-MB-435): 124 nM
TGI (total growth inhibition) (MDA-MB-435): 0.329 µM
GI50 (K-562): 264 nM
GI50 (SF-539): 232 nM
TGI (total growth inhibition) (SF-539): 0.654 µM
GI50 (MCF7): 375 nM
TGI (total growth inhibition) (A498): 0.646 µM
GI50 (A498): 179 nM
GI50 (MDA-MB-468): 269 nM
TGI (total growth inhibition) (MDA-MB-468): 2.73 µM
GI50 (SR): 233 nM
GI50 (SF-295): 340 nM
GI50 (Ovcar-3): 243 nM
TGI (total growth inhibition) (Ovcar-3): 634 nM
GI50 (NCI-H522): 210 nM
TGI (total growth inhibition) (NCI-H522): 0.868 µM
GI50 (Ovcar-8): 479 nM
GI50 (NCI/ADR-RES): 480 nM
TGI (total growth inhibition) (NCI/ADR-RES): > 10000 nM
GI50 (UACC-257): > 10000 nM
GI50 (TK-10): 3860 nM
GI50 (Ovcar-4): 2140 nM
GI50 (SK-MEL-28): 934 nM
GI50 (T-47D): > 10000 nM
Inhibition of the polymerization of tubulin (tubulin): inhibited the polymerization of tubulin
